Measured values from the supplement of paper PMC5908809.

Assays:
[1] = test system: NKL (IL-2 2.5 ng/mL); experiment: relative IC50 (inflection point of fitted viability curve, relative to fitted max inhibition); higher = less sensitive; settings: 72 h
Procedure: (§1)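 Drug sensitivity and resistance testing: 5 concentrations over a 10,000-fold range, 72 h at 37 °C, viability by CellTiter-Glo normalised to DMSO and benzethonium chloride controls. IC50 is the inflection point of a logistic fit (min fixed at 0, max fitted), so it is relative to the fitted maximal inhibition. Kept only where fitted max inhibition is at least 50%.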

[2] = test system: KAI3 (IL-2 2.5 ng/mL); experiment: as above; settings: 72 h
Procedure: as §1

[3] = test system: NK-92 (IL-2 2.5 ng/mL); experiment: as above; settings: 72 h
Procedure: as §1

[4] = test system: DERL-7 (IL-2 2.5 ng/mL); experiment: as above; settings: 72 h
Procedure: as §1

[5] = test system: NK-YS (IL-2 2.5 ng/mL); experiment: as above; settings: 72 h
Procedure: as §1

[6] = test system: KHYG-1 (IL-2 2.5 ng/mL); experiment: as above; settings: 72 h
Procedure: as §1

[7] = test system: NKL (IL-2 2.5 ng/mL); experiment: drug sensitivity score (DSS) (DSS units); higher = more sensitive; extreme values may be limits of the assay; settings: 72 h
[8] = test system: KAI3 (IL-2 2.5 ng/mL); experiment: as above; settings: 72 h
[9] = test system: NK-92 (IL-2 2.5 ng/mL); experiment: as above; settings: 72 h
[10] = test system: normal primary NK cells, pool 2 (3 donors) (IL-2 2.5 ng/mL); experiment: as above; settings: 72 h
[11] = test system: DERL-7 (IL-2 2.5 ng/mL); experiment: as above; settings: 72 h
[12] = test system: NK-YS (IL-2 2.5 ng/mL); experiment: as above; settings: 72 h
[13] = test system: normal primary NK cells, pool 1 (3 donors), resting (IL-2 0 ng/mL); experiment: as above; settings: 72 h
[14] = test system: KHYG-1 (IL-2 2.5 ng/mL); experiment: as above; settings: 72 h
[15] = test system: normal primary NK cells, pool 3 (3 donors) (IL-2 2.5 ng/mL); experiment: as above; settings: 72 h
[16] = test system: YT (IL-2 2.5 ng/mL); experiment: as above; settings: 72 h
[17] = test system: normal primary NK cells, pool 1 (3 donors) (IL-2 2.5 ng/mL); experiment: as above; settings: 72 h
[18] = test system: SNK-6 (IL-2 2.5 ng/mL); experiment: as above; settings: 72 h
[19] = test system: IMC-1 (IL-2 20 ng/mL); experiment: as above; settings: 72 h
[20] = test system: NKL (IL-2 2.5 ng/mL); experiment: percent inhibition of viability; higher = more inhibition; settings: 72 h
[21] = test system: KAI3 (IL-2 2.5 ng/mL); experiment: as above; settings: 72 h
[22] = test system: NK-92 (IL-2 2.5 ng/mL); experiment: as above; settings: 72 h
[23] = test system: normal primary NK cells, pool 2 (3 donors) (IL-2 2.5 ng/mL); experiment: as above; settings: 72 h
[24] = test system: DERL-7 (IL-2 2.5 ng/mL); experiment: as above; settings: 72 h
[25] = test system: NK-YS (IL-2 2.5 ng/mL); experiment: as above; settings: 72 h
[26] = test system: normal primary NK cells, pool 1 (3 donors), resting (IL-2 0 ng/mL); experiment: as above; settings: 72 h
[27] = test system: KHYG-1 (IL-2 2.5 ng/mL); experiment: as above; settings: 72 h
[28] = test system: normal primary NK cells, pool 3 (3 donors) (IL-2 2.5 ng/mL); experiment: as above; settings: 72 h
[29] = test system: YT (IL-2 2.5 ng/mL); experiment: as above; settings: 72 h
[30] = test system: normal primary NK cells, pool 1 (3 donors) (IL-2 2.5 ng/mL); experiment: as above; settings: 72 h
[31] = test system: SNK-6 (IL-2 2.5 ng/mL); experiment: as above; settings: 72 h
[32] = test system: IMC-1 (IL-2 20 ng/mL); experiment: as above; settings: 72 h
[33] = test system: normal NK cells expanded with K562-aAPC; experiment: drug sensitivity score (DSS) (DSS units); higher = more sensitive; extreme values may be limits of the assay; settings: 72 h; IL-2 2.5 ng/mL
Procedure: (§2)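 Drug sensitivity and resistance testing on K562-aAPC-expanded normal NK cells: 5 concentrations (10-fold steps over a 10,000-fold range), 72 h at 37 °C, viability by CellTiter-Glo normalised to DMSO and benzethonium chloride controls; DSS from the fitted curve.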

[34] = test system: normal NK cells expanded with K562-aAPC; experiment: percent inhibition of viability; higher = more inhibition; settings: 72 h, IL-2 2.5 ng/mL
Procedure: as §2

Cn1cc(-c2cnn3c(N)c(Br)c([C@@H]4CCCNC4)nc23)cn1 [MK-8776]
Settings	relative IC50 [µM]
[1]	0.372
[2]	0.337
[3]	0.75
[4]	0.539
[5]	0.668
[6]	0.311

CNC(=O)c1ccc(N2C(=S)N(c3cnc(C#N)c(C(F)(F)F)c3)C(=O)C23CCC3)cc1F [ARN 509] (max concentration tested 10000 nM)
Settings	drug sensitivity score
[7]	0
[8]	1.88
[9]	0.72
[10]	0
[11]	0
[12]	0.46
[13]	0.11
[14]	0
[15]	0
[16]	0
[17]	0
[18]	7.62
[19]	0.78
[33]	3.05

percent inhibition of viability [%]
Settings	1 nM	10 nM	100 nM	1000 nM	10000 nM
[20]	-5.58	-11.3	-0.18	-5.48	3.63
[21]	-2.56	-12.9	0.32	4.54	27.9
[22]	-3.11	-4.21	2.28	-1.18	23
[23]	-8.15	-8.75	-5.23	-6.28	8.97
[24]	6.41	-1.09	-0.93	-13.3	-12.6
[25]	-3.22	-1.75	-0.61	1.75	15.7
[26]	-0.17	11.7	-4.44	-10.2	15.5
[27]	-1.73	-3.05	1.87	8.59	9.64
[28]	-7.92	-6.67	-6.21	-10.2	3.54
[29]	2.58	2.98	4.62	0.81	10.2
[30]	-11.3	4.68	-6.94	-10.6	10.8
[31]	16.7	-1.7	14.6	33.1	24.3
[32]	2.81	-1.31	5.83	9.26	16.9
[34]	0.72	1.64	2.47	20	14.2
